Measurements reported in ChEMBL document CHEMBL3867489, “Design, synthesis, antibacterial activity and docking study of some new trimethoprim derivatives” (2016).
Converted amounts (≈) assume the structure as drawn.

Legend:
Staphylococcus aureus = assay: Antibacterial activity against Staphylococcus aureus by agar well diffusion method; type: functional
Escherichia coli = assay: Antibacterial activity against Escherichia coli by agar well diffusion method; type: functional

| SMILES | MIC (Staphylococcus aureus) [µM] | MIC (Escherichia coli) [µM] |
| --- | --- | --- |
| COc1cc(Cc2cnc(N)nc2N)cc(OC)c1OCC(=O)c1ccc([N+](=O)[O-])cc1 | 72.9 (≈ 32 µg/mL) | 72.9 (≈ 32 µg/mL) |
| COc1cc(Cc2cnc(N)nc2N)cc(OC)c1OC [TRIMETHOPRIM] | 22.7 (≈ 6.59 µg/mL) | 55.1 (≈ 16 µg/mL) |
| COc1cc(Cc2cnc(N)nc2N)cc(OC)c1OCc1ccc(Cl)cc1 | 20 (≈ 8.02 µg/mL) | 8.3 (≈ 3.33 µg/mL) |
| COc1cc(Cc2cnc(N)nc2/N=C/c2cccc(O)c2)cc(OC)c1O | 672 (≈ 256 µg/mL) | 336 (≈ 128 µg/mL) |
| COc1cc(Cc2cnc(N)nc2N)cc(OC)c1OCC(=O)c1ccc(Cl)cc1 | 78.4 (≈ 33.6 µg/mL) | 78.4 (≈ 33.6 µg/mL) |
| COc1cc(Cc2cnc(N)nc2N)cc(OC)c1O [4-HYDROXYTRIMETHOPRIM] | 24.1 (≈ 6.66 µg/mL) | 48.2 (≈ 13.3 µg/mL) |
| COc1cc(Cc2cnc(N)nc2N)cc(OC)c1OCC(=O)c1ccccc1 | 81.2 (≈ 32 µg/mL) | 81.2 (≈ 32 µg/mL) |
| COc1ccc(COc2c(OC)cc(Cc3cnc(N)nc3N)cc2OC)cc1 | 5 (≈ 1.98 µg/mL) | 4 (≈ 1.59 µg/mL) |

Continued by falling MIC (Staphylococcus aureus), values first:

| MIC (Staphylococcus aureus) [µM] | MIC (Escherichia coli) [µM] | SMILES |
| --- | --- | --- |
| 672 (≈ 256 µg/mL) | 672 (≈ 256 µg/mL) | COc1cc(Cc2cnc(N)nc2/N=C/c2ccc(O)cc2)cc(OC)c1O |
| 535 (≈ 214 µg/mL) | 535 (≈ 214 µg/mL) | COc1cc(Cc2cnc(N)nc2/N=C/c2ccc(Cl)cc2)cc(OC)c1O |
| 37.7 (≈ 15.4 µg/mL) | 15.5 (≈ 6.33 µg/mL) | COc1cc(Cc2cnc(N)nc2N)cc(OC)c1OCC(=O)c1ccc(C)cc1 |
| 32.3 (≈ 13.3 µg/mL) | 39 (≈ 16 µg/mL) | COc1cc(Cc2cnc(N)nc2N)cc(OC)c1OCc1ccc([N+](=O)[O-])cc1 |
| 18.7 (≈ 7.94 µg/mL) | 18.7 (≈ 7.94 µg/mL) | COc1ccc(C(=O)COc2c(OC)cc(Cc3cnc(N)nc3N)cc2OC)cc1 |
| 18.2 (≈ 6.67 µg/mL) | 18.2 (≈ 6.67 µg/mL) | COc1cc(Cc2cnc(N)nc2N)cc(OC)c1OCc1ccccc1 |
| 10 (≈ 3.8 µg/mL) | 5 (≈ 1.9 µg/mL) | COc1cc(Cc2cnc(N)nc2N)cc(OC)c1OCc1ccc(C)cc1 |
